Measurements taken from PubChem BioAssay (NCI).
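In this assay, cells in 96-well plates receive the compound at five concentrations for 48 hours. Endpoints are linearly interpolated between the surrounding concentrations. TGI marks complete inhibition of growth.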

Legend:
Assay in all cases: NCI anticancer screen, dose series, 48 h
[1] = system: NCI/ADR-RES ovarian
[2] = system: RXF 393 renal
[3] = system: HL-60(TB) leukemia
[4] = system: OVCAR-5 ovarian
[5] = system: CCRF-CEM leukemia
[6] = system: MDA-MB-231 breast
[7] = system: SN12C renal
[8] = system: HCT-15 colon
[9] = system: NCI-H226 lung
[10] = system: BT-549 breast

Compound | TGI [1] [µM] | TGI [2] [µM] | TGI [3] [µM] | TGI [4] [µM] | TGI [5] [µM] | TGI [6] [µM] | TGI [7] [µM] | TGI [8] [µM] | TGI [9] [µM] | TGI [10] [µM]
O=C(NC/C=C/Br)NC1CCNc2ccccc21 (stereo not drawn) | 99.7 | > 100 | > 100 | > 100 | > 100 | > 100 | > 100 | > 100 | > 100 | –
CN(C)c1ccc(/C=C2\C[C@H]3[C@@H]4CCc5cc(O)ccc5[C@H]4CC[C@]3(C)C2=O)cc1 | > 100 | > 100 | – | > 100 | > 100 | 69 | – | > 100 | 67.3 | –
CCOC(=O)c1c(-c2ccc(OC)c(O)c2)c(C#N)c(=S)n(C2OC(CO)C(O)C(O)C2O)c1-c1ccccc1 (stereo not drawn) | > 100 | > 100 | – | – | > 100 | – | > 100 | > 100 | > 100 | –
C=C1C(=O)O[C@H]2[C@H]([C@H](C)CCCC(C)=O)O[C@H]([C@@]3(C)CCC(=O)O3)C[C@@H]12 | > 100 | – | > 100 | > 100 | 83.5 | > 100 | > 100 | > 100 | 80.5 | > 100
C=CCn1c(=O)c2ccccc2[n+]2c(-c3cccc([N+](=O)[O-])c3)csc12 | 68.2 | > 100 | 58.2 | > 100 | > 100 | > 100 | > 100 | – | > 100 | –
COc1cc(-c2[o+]c3cc(O)cc(OC4OC(CO)C(O)C(O)C4O)c3cc2OC2OC(CO)C(O)C(O)C2O)cc(OC)c1O (stereo not drawn) | – | > 100 | > 100 | > 100 | > 100 | > 100 | > 100 | > 100 | > 100 | > 100
COC(=O)C(C(=O)OC)C1CC(=O)c2c(Br)sc(Br)c21 (stereo not drawn) | 37.1 | 84.4 | 49.9 | 28.9 | 15.4 | – | 32.4 | 21.6 | 53.4 | 35.7
O=C(NCc1cccnc1)C(=O)NCc1cccnc1 | > 100 | > 100 | 64.7 | > 100 | – | > 100 | > 100 | > 100 | > 100 | > 100
O=C1C(=Cc2ccccc2[N+](=O)[O-])N=C(c2ccccc2)N1n1c(-c2ccccc2)nc2ccccc2c1=O | 62.6 | 56.2 | – | > 100 | 78 | > 100 | 87.3 | > 100 | 85.3 | > 100
C=C1CC(OC)(C(O)C(=O)N[C@H]2OCO[C@H]3C2O[C@H](C[C@H](O)COC)C(C)(C)C3OC)O[C@H](C)[C@@H]1C (stereo partly drawn) | > 0.00772 | > 0.00772 | – | > 0.00772 | > 0.00772 | – | > 0.00772 | > 0.00772 | > 0.00772 | –
CCOC(=O)CCC(C(=O)OCC)n1nnc2cc(Nc3c(C)[n+]([O-])c4ccc(Cl)cc4[n+]3[O-])ccc21 (stereo not drawn) | > 100 | > 100 | > 100 | > 100 | > 100 | – | > 100 | > 100 | > 100 | > 100
CC1(C)CC2(C)OC(=N)C1(C#N)C2(C#N)C#N (stereo not drawn) | 29.5 | 27.2 | 15.6 | 27.3 | – | 21.2 | 21.7 | 4.84 | – | –
COC(=O)C1[C@H](C(=O)OC)C1(Br)CBr (stereo partly drawn) | > 100 | > 100 | > 100 | > 100 | – | > 100 | > 100 | > 100 | > 100 | > 100
C/C(=C\CNc1nc(Cl)nc2nc[nH]c12)CO | > 100 | > 100 | > 100 | > 100 | > 100 | > 100 | > 100 | – | > 100 | –
CC(=O)Nc1ccc(/C=C(\NC(=O)c2ccccc2)C(=O)NNS(=O)(=O)c2ccc(C)cc2)cc1 | – | > 100 | > 100 | > 100 | > 100 | – | > 100 | 41.1 | > 100 | –
c1ccc(CNc2ncnc3n[nH]nc23)cc1 | > 100 | > 100 | > 100 | > 100 | > 100 | > 100 | > 100 | > 100 | > 100 | –
C=C(C(=O)OC)[C@H]1CC/C(C)=C/CC/C(C)=C/CC[C@@]2(C)O[C@@H]2C1 | 52.1 | 28.8 | 30.9 | 48.2 | 30 | 33.6 | 31.2 | 31.7 | 44.4 | –
CCOC(=O)C[n+]1ccc2c([nH]c3cc(OC)ccc32)c1C | > 100 | > 100 | > 100 | > 100 | > 100 | – | > 100 | > 100 | > 100 | –
COc1ccccc1N1C(=O)/C(=C\c2cccc(Oc3ccccc3)c2)S(=O)(=O)C1c1ccccc1 (stereo not drawn) | 67.6 | > 100 | – | > 100 | > 100 | > 100 | > 100 | > 100 | > 100 | 83.6
CC1(C)Oc2ccc3c(=O)c4ccccc4oc3c2C1C(=O)O (stereo not drawn) | > 100 | > 100 | – | > 100 | > 100 | > 100 | > 100 | – | > 100 | > 100
CCOC(=O)N1C(=S)C(C(=O)OC)(C(=O)OC)N=C1C | > 100 | > 100 | > 100 | > 100 | > 100 | – | > 100 | > 100 | > 100 | > 100
COc1ccc(N2C(=O)C(N3C(=O)C=CC3=O)C2C=O)cc1 (stereo not drawn) | – | – | > 100 | > 100 | > 100 | – | > 100 | > 100 | – | –
COc1ccc(NS(=O)c2cccc(C)c2)cc1 (stereo not drawn) | > 100 | > 100 | > 100 | > 100 | > 100 | > 100 | > 100 | > 100 | > 100 | –
